Results on 20 substances are retold here after patent US20210261636A1, “NEOANTIGENS EXPRESSED IN MULTIPLE MYELOMA AND THEIR USES” (Janssen Biotech, Inc., priority 2020, published 2021).

One experiment has as its system CD8+ T cells. Briefly: Exogenous autologous healthy donor restimulation assay, TNFα and IFNγ production by CD8+ T cells. The experiment is classed as cell-based, human. On the set-up: Frequency (TNFα+ IFNγ+ CD8 T cells): unit not given here. To be noted: for Fold change (CD8+) vs. DMSO: maximum CD8+ T-cell response (TNFα and IFNγ); for Fold change (CD8+) vs. DMSO / Frequency (TNFα+ IFNγ+ CD8 T cells): donor independent, peptide pool 10 μg/mL, healthy donors; for Frequency (TNFα+ IFNγ+ CD8 T cells): maximum CD8+ T-cell response; for Immunogenic (yes/no): positive if CD8+ and/or CD4+ double positive TNFα/IFNγ frequency >=3-fold over DMSO and at least 0.01%. As to the method: (§1) Immunogenicity responses were measured by estimating TNFα IFNγ double positive cells in the CD4+ and/or CD8+ T-cell populations. A response is considered positive if TNFα IFNγ double positive fraction was greater than or equal to three-fold over unstimulated cells (DMSO negative control) with a minimum frequency >=0.01%. […]
(§2) Overlapping 15-mer peptides were designed to span each indicated neoantigen. Their ability to activate T cells was assessed using known methods, such as the assay defnied as exogenous autologous normal donor restimulation assay. The peptides were used as pools using TNFα and IFNγ production by CD8^+ and CD4^+ T cells as a readout. Maximum frequency of CD8^+TNFα^+IFNγ^+ and CD4^+TNFα^+IFNγ^+ T cells and maximum fold change over background for each pool of peptides were analyzed, which were calculated as the highest frequency of CD8^+ TNFα^+IFNγ^+ and CD4^+ TNFα^+IFNγ^+ T cells and resulting fold change across the normal donors evaluated for the peptide.
(§3) CD1c+Dendritic Cells (CD1c+DC) isolated from human healthy PBMCs were thawed using media (IMDM (Gibco) supplemented with glutamine, HEPES, 5% human serum (Sigma), and 1× Pen-Strep). DC cells were resuspended in media supplemented with IL-4 (Peprotech, 20 ng/mL) and GM-CSF (Gibco, 20 ng/mL), plated in 6 well microplates, and rested overnight at 37° C. and 5% CO2 incubator. The following day, DC cells were counted and plated in a 96 well round bottom microplate at a concentration of 30,000 viable cells per well. Lyophilized neoantigen peptide pools (15-mer peptides with 8-mer overlapping peptide sequences) were solubilized in 100% DMSO with a stock concentration of 20 mg/mL Neoantigen peptides pools were added to DCs for a final concentration of 10 μg/mL and rested for 2 hours at 37° C. and 5% CO2 incubator. CEF Peptide Pool “Plus” (Cellular Technologies, Ltd.) was utilized as a positive control (each viral peptide at a final concentration of 4 ug/ml) and DMSO at the same final concentration (0.05%) as the experimental peptides was utilized as a negative control. After 2 hours, DC cells were irradiated with 50 gray of ionizing radiation. Autologous CD3+ Pan-T cells isolated from human normal PBMCs were thawed using media. Following irradiation, autologous Pan-T cells were added to the irradiated DCs at 300,000 viable cells per well. Human IL-15 (Peprotech) was added to all wells at final concentration of 10 ng/ml. Plates were incubated at 37° C. and 5% CO2 incubator for a total of 12 days. Media was refreshed every 2-3 days with IL-15 (R&D System, 10 ng/mL final concentration) and IL-2 (R&D systems, 10 IU/mL final concentration).
(§4) On Day 11, cells were re-stimulated with identical experimental peptide pools or controls, at same concentration as peptide stimulation on Day 1. Protein Inhibitor Cocktail (eBioscience) was added to every well and plate was incubated overnight for 14-16 hours at 37° C. and 5% CO2 incubator. On Day 12, cells were stained for surface and intracellular flow cytometry analysis. The cells were washed with PBS and stained with Live/Dead Fixable Aqua Dead Cell stain (Thermo-Fisher). Following the live/dead stain, cells were blocked using Biotin-Free Fc Receptor Blocker (Accurate Chemical & Scientific Corp). Extracellular cellular flow panel (1 μL/antibody per well in 50 μL) consisted of CD3 PerCP-Cy5.5 (Biolegend), CD4 BV421 (Biolegend), and CD8 APC-Cy7 (Biolegend). After extracellular staining, cells were fixed and permeabilized using Foxp3/Transcription Factor Staining Buffer Set (eBioscience) and stained for intracellular proteins (1:50 dilution) using TNFα FITC (R&D Systems) and IFNγ BV785 (Biolegend). Cells were washed and resuspended in stain buffer, analyzed, and recorded in a BD Celesta flow cytometer.
(§5) Flow cytometry analysis was conducted on FlowJo v10.6 software. Cells were gated on live, singlet, CD3+, CD4+ and CD8+ T cells. The CD8+ and CD4+ T cells were analyzed for TNFα and IFNγ expression. […]

The next experiment concerns CD4+ T cells. Briefly: Exogenous autologous healthy donor restimulation assay, TNFα and IFNγ production by CD4+ T cells. Set-up: Frequency (TNFα+ IFNγ+ CD4 T cells): unit not given here. The note with it: donor independent, peptide pool 10 μg/mL, healthy donors; for Fold change (CD4+) vs. DMSO: maximum CD4+ T-cell response (TNFα and IFNγ); for Frequency (TNFα+ IFNγ+ CD4 T cells): maximum CD4+ T-cell response. In kind it is cell-based, human. The method, then:
as §1, §2, §3, §4, §5

As for “FLQKHGNENTVLMLETLSEIRYGYVSCVCCPLLSPYGRCLN [AS26, alternative splicing, AGFG1]”, in the experiment with CD8+ T cells, the “Fold change (CD8+) vs. DMSO” value is listed as 84.36, the “Frequency (TNFα+ IFNγ+ CD8 T cells)” value is given as 0.75 and the “Immunogenic (yes/no)” value was “Yes”. In addition, in the experiment with CD4+ T cells, the “Fold change (CD4+) vs. DMSO” value is 5.7 and the “Frequency (TNFα+ IFNγ+ CD4 T cells)” value is 0.097.
The like results for “FSMRPAFGETALGCKKW [AS19, alternative splicing, GABRR2]” were, in that order, 140, 0.031, “Yes”, 23.16 and 0.12.
Take “FSQNMNTKMIRGTERKQQYYGLQILE [AS134, alternative splicing, XPO1]”: in the experiment on CD8+ T cells, the “Fold change (CD8+) vs. DMSO” value is listed as 4.51, the “Frequency (TNFα+ IFNγ+ CD8 T cells)” value was determined as 0.091 and the “Immunogenic (yes/no)” value is “Yes”. Also, in the experiment with CD4+ T cells, the “Fold change (CD4+) vs. DMSO” value was found to be 1.429 and the “Frequency (TNFα+ IFNγ+ CD4 T cells)” value is listed as 0.02.
As for FU524 (SGLEAIQRGYETFYSE), in the experiment with CD8+ T cells, the “Fold change (CD8+) vs. DMSO” value was determined as 259.11, the “Frequency (TNFα+ IFNγ+ CD8 T cells)” value is on record as 0.48 and the “Immunogenic (yes/no)” value is given as “Yes”. In the experiment on CD4+ T cells, the “Fold change (CD4+) vs. DMSO” value was determined as 3.13 and the “Frequency (TNFα+ IFNγ+ CD4 T cells)” value is 0.014.
Turning to “GEKILFIRVKFYFSLILFLWEDSEFELGEI [AS9, alternative splicing, GAS2]”, in the experiment with CD8+ T cells, the “Fold change (CD8+) vs. DMSO” value is recorded as 358.4, the “Frequency (TNFα+ IFNγ+ CD8 T cells)” value is 1.99 and the “Immunogenic (yes/no)” value is “Yes”. For the same substance, in the experiment with CD4+ T cells, the “Fold change (CD4+) vs. DMSO” value is given as 20.874 and the “Frequency (TNFα+ IFNγ+ CD4 T cells)” value turned out to be 0.099.
For “GEPGEDAGIGRPEEREREEEMADQ [AS135, alternative splicing, ZBP1]”, in the experiment on CD8+ T cells, the “Fold change (CD8+) vs. DMSO” value is 2.68, the “Frequency (TNFα+ IFNγ+ CD8 T cells)” value came to 0.092 and the “Immunogenic (yes/no)” value is given as “No”. In the experiment on CD4+ T cells, the “Fold change (CD4+) vs. DMSO” value was 3.73 and the “Frequency (TNFα+ IFNγ+ CD4 T cells)” value is on record as 0.03.
For “GEVKWSVGSRTSLLL [FUS38, gene fusion CD79B-> GH1]”, in that order: 23.41, 0.18, “Yes”, 4.06 and 0.007.
As to “GFFETEMAVPFFSRKIRKVRRAIMKWTFCCYFY [AS118, alternative splicing, IARS]”, in the experiment with CD8+ T cells, the “Fold change (CD8+) vs. DMSO” value is 106.428, the “Frequency (TNFα+ IFNγ+ CD8 T cells)” value is reported as 1.01 and the “Immunogenic (yes/no)” value is on record as “Yes”. For the same substance, in the experiment on CD4+ T cells, the “Fold change (CD4+) vs. DMSO” value worked out at 7.692 and the “Frequency (TNFα+ IFNγ+ CD4 T cells)” value is listed as 0.15.
As to “GGPPFVGPLRGPRAQPSLSGLCGRRTGSRDTIKIPGQT [FUS42, gene fusion RBM42-> ETV2]”, in the experiment with CD8+ T cells, the “Fold change (CD8+) vs. DMSO” value turned out to be 14.72, the “Frequency (TNFα+ IFNγ+ CD8 T cells)” value was found to be 0.027 and the “Immunogenic (yes/no)” value is given as “Yes”. In the experiment with CD4+ T cells, the “Fold change (CD4+) vs. DMSO” value came to 9.54 and the “Frequency (TNFα+ IFNγ+ CD4 T cells)” value was 0.11.
With “GKSTPPRKEIFDDASP [FUS11, gene fusion GAB1-> SMARCA5]”, in the experiment on CD8+ T cells, the “Fold change (CD8+) vs. DMSO” value is listed as 7.36, the “Frequency (TNFα+ IFNγ+ CD8 T cells)” value worked out at 0.013 and the “Immunogenic (yes/no)” value was “Yes”. Further, in the experiment with CD4+ T cells, the “Fold change (CD4+) vs. DMSO” value was 11.4 and the “Frequency (TNFα+ IFNγ+ CD4 T cells)” value is given as 0.008.
As for “GNVLVRYVSLYVYYILLN [AS97, alternative splicing, ANKRD28]”, in the experiment with CD8+ T cells, the “Fold change (CD8+) vs. DMSO” value is listed as 13446.33, the “Frequency (TNFα+ IFNγ+ CD8 T cells)” value was determined as 23.8 and the “Immunogenic (yes/no)” value is “Yes”. Further, in the experiment on CD4+ T cells, the “Fold change (CD4+) vs. DMSO” value was 96.12 and the “Frequency (TNFα+ IFNγ+ CD4 T cells)” value was 0.57.
In the case of “GRAGQGGGMISVSQEFIK [FUS7, gene fusion FAM98A-> LOC105374454]”, in the experiment with CD8+ T cells, the “Fold change (CD8+) vs. DMSO” value was determined as 3.04, the “Frequency (TNFα+ IFNγ+ CD8 T cells)” value is given as 0.093 and the “Immunogenic (yes/no)” value is listed as “Yes”. Further, in the experiment on CD4+ T cells, the “Fold change (CD4+) vs. DMSO” value was 17.18 and the “Frequency (TNFα+ IFNγ+ CD4 T cells)” value is on record as 0.21.
The like results for “GTTRLLSGEDFS [AS111, alternative splicing, CD55]” were, in that order, 1.16, 0.012, “Yes”, 16.71 and 0.06.
For the substance “IDPSSPLHTYYERITKGRNPERRYMKPERISPGHEAMEKNLEDNL [AS129, alternative splicing, TET1]”, in the experiment on CD8+ T cells, the “Fold change (CD8+) vs. DMSO” value is given as 19.08, the “Frequency (TNFα+ IFNγ+ CD8 T cells)” value is given as 0.27 and the “Immunogenic (yes/no)” value is “Yes”. Besides, in the experiment with CD4+ T cells, the “Fold change (CD4+) vs. DMSO” value was 9.79 and the “Frequency (TNFα+ IFNγ+ CD4 T cells)” value is recorded as 0.022.
The like results for “IEKSISARITEQ [FUS36, gene fusion TNFRSF17-> SNX29]” were, in that order, 8.7, 0.013, “Yes”, 4.69 and 0.008.
With “IENEGGQVRSRPAPS [AS56, alternative splicing, ADGRE5]”, in the experiment on CD8+ T cells, the “Fold change (CD8+) vs. DMSO” value is 5, the “Frequency (TNFα+ IFNγ+ CD8 T cells)” value worked out at 0.069 and the “Immunogenic (yes/no)” value was “Yes”. In the experiment with CD4+ T cells, the “Fold change (CD4+) vs. DMSO” value is listed as 3.71 and the “Frequency (TNFα+ IFNγ+ CD4 T cells)” value worked out at 0.019.
Take “IIMALAILDLFAVLKIEAHKQLLLKSFCYGAGK [AS113, alternative splicing, CLCC1]”: in the experiment with CD8+ T cells, the “Fold change (CD8+) vs. DMSO” value was 5.07, the “Frequency (TNFα+ IFNγ+ CD8 T cells)” value worked out at 0.38 and the “Immunogenic (yes/no)” value is reported as “Yes”. In addition, in the experiment with CD4+ T cells, the “Fold change (CD4+) vs. DMSO” value is reported as 5.7 and the “Frequency (TNFα+ IFNγ+ CD4 T cells)” value turned out to be 0.009.
The like results for “ILAQKKKDELSS [AS93, alternative splicing, TJP1]” were, in that order, 1.44, 0.014, “Yes”, 9.9 and 0.015.
The like results for “IMLIGNKSNCQKQLLRDMKILNEFYHGLILTLQLS [AS126, alternative splicing, RAB2B]” were, in that order, 161.72, 0.49, “Yes”, 6.861 and 0.04.
For “ISKRLKSRRRSGWQLNRAGNRGLSPGLGLFPRGCCRWGGAYTRLPSANQT [FUS20, gene fusion PTGES2-> SLC25A25-AS1]”, in that order: 511.064, 4.85, “Yes”, 11.664 and 0.068.
